Counter-ions that a name gives are not always drawn. Like-named read-outs stand apart in the source and are kept apart here. A value given as a limit tells only on which side of the number the result lay.

Assay [1] deals with left coronary artery. In words: Coronary vasodilating effects in dogs (intracoronary). The conditions noted are these: for Duration of action of coronary vasodilating effect: intracoronary (ia). Format: in vivo, mongrel dogs. The method, then:
Mongrel dogs of either sex were anesthetized and ventilated as previously described. A thoracotomy was performed at the 4th intercostal space. Following an intravenous injection of heprin (1000 units/kg), blood from the distal end of the cannulated carotid artery was pumped into circumflex branch of the left coronary artery using a servocontrolled peristaltic pump which maintained a constant perfusion pressure of 120 mmHg by means of a pump controller. An electromagnetic flow probe was inserted in the circit to record blood flow through the cannulated coronary artery. The test compounds were administered directly into the rubber tubing connected close to the coronary artery cannula.

Assay [2] addresses T1, Beta-adrenoceptor (Rattus norvegicus, UniProt P18090). In words: Beta-adrenoceptor blocking effect in reserpinized rats (isoproterenol chronotropy). Format: in vivo, male Wistar rats. More on the design: The rats were anesthetized with pentobarbital sodium; from tissue; host or cells: heart in the living anesthetized male Wistar rat (reserpine-pretreated, vagotomized). The conditions noted are these: isoproterenol 0.1 μg/kg iv, cumulative iv doses, read-out: Beta-Blocking ED50 (50% blockade of positive chronotropic response to isoproterenol). As for the experimental part: (§1) The rats were pretreated with reserpine (8 mg/kg ip), 18 hr before experiments. […] The heart rate was measured with a cardiotachometer triggered by the QRS of the ECG (lead II) and recorded on a polygraph. After the Control response to isoproterenol at a dose of 0.1 μg/kg iv was obtained, the test compound was injected iv in increasing doses at 20 min intervals.

In assay [3] the test system is mean arterial blood pressure (MBP) and coronary blood flow (Cor. BF). In words: Hemodynamic effects in anesthetized open-chest dogs (i.v.). Format: in vivo, mongrel dogs. The conditions noted are these: Canis lupus familiaris, anesthetized dogs; for change in vivo at 0.3 mg/kg: 0.3 mg/kg iv; for change in vivo at 1 mg/kg: 1.0 mg/kg iv; for change in vivo at 0.1 mg/kg: 0.1 mg/kg iv; for change in vivo at 0.03 mg/kg: 0.03 mg/kg iv. The method, then: Mongrel dogs of either sex were anesthetized with pentobarbital sodium (30 mg/kg iv). The animals were artificially ventilated with room air. The chest was opened at the left 4th intercostal space. Mean arterial blood pressure (MBP), heart rate (HR), left ventricular pressure (LVP), max. dLVP/dt, mean pulmonary arterial blood pressure (MPAP), cardiac output (CO) and coronary blood flow (Cor. BF) were measured. The test compounds were injected into the femoral vein. […] BF from control values induced by intravenous injection of test compounds.

Assay [4] addresses T1, Beta-adrenoceptor. In words: Intrinsic sympathomimetic activity (ISA) in reserpinized rats. The arrangement: The rats were anesthetized with pentobarbital sodium; from tissue; host or cells: heart in the living anesthetized male Wistar rat (reserpine-pretreated, vagotomized). The conditions noted are these: reserpine-pretreated rats, iv. Format: in vivo, male Wistar rats. As for the experimental part:
as §1
In this series of experiments, intrinsic sympathomimetic activity (ISA) was also evaluated.

Setting [5] is: read-out: percent change of Cor. BF from control.
Setting [6] is: read-out: percent change of MBP from control.

T1 sequence (P18090 whole entry): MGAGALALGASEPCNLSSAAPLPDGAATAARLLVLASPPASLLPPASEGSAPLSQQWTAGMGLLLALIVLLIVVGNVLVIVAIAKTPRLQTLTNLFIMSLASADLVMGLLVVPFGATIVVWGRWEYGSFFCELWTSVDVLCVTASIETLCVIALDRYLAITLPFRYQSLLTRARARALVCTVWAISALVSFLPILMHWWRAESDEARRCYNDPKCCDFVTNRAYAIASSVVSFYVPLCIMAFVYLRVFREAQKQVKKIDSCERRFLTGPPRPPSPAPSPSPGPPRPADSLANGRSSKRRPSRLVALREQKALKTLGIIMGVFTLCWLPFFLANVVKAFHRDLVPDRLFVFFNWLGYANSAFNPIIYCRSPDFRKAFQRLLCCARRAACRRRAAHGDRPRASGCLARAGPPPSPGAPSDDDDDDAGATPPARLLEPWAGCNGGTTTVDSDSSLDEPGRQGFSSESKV

Usually ED50 stands for the midpoint of the dose-response relation. Take `COC(=O)C1=C(C)NC(C)=C(C(=O)OCCCCCCNCC(O)COc2ccccc2)C1c1cccc(Cl)c1.Cl` (centres unmarked) [Example 43, 6-(2-hydroxy-3-phenoxypropylamino)hexyl methyl 4-(m-chlorophenyl)-2,6-dimethyl-1,4-dihydro-pyridine-3,5-dicarboxylate hydrochloride]: in assay [1], the “ED100 pap (dose for 100% increase of Cor. BF; maximum response to papaverine 300 μg ia = 100%)” value is given as 56 μg ia and the “Duration of action of coronary vasodilating effect” value (from here on “Duration”) is given as above 60 min. Also, the ED50 in assay [2] was 0.87 mg/kg. Besides, the change in vivo at 0.3 mg/kg in assay [3] (setting [5]) was determined as 44%. In addition, in assay [3] (setting [6]), the change in vivo at 0.3 mg/kg is -22%. In addition, the “ISA (increase in HR)” value in assay [4] is listed as “-”.

Take `COC(=O)C1=C(C)NC(C)=C(C(=O)OCCCCCCNCC(O)COc2ccccc2)C1c1cccc(C(F)(F)F)c1` (centres unmarked) [Example 7, 6-(2-hydroxy-3-phenoxypropylamino)hexyl methyl 2,6-dimethyl-4-(m-trifluoromethylphenyl)-1,4-dihydropyridin-3,5-dicarboxylate]: in assay [1], the “ED100 pap (dose for 100% increase of Cor. BF; maximum response to papaverine 300 μg ia = 100%)” value was found to be 100 μg ia and the “Duration” value is recorded as above 60 min. In assay [2], the ED50 is 1.93 mg/kg. The change in vivo at 1 mg/kg in assay [3] (setting [5]) turned out to be 24%. The change in vivo at 1 mg/kg in assay [3] (setting [6]) was -20%. Also, the “ISA (increase in HR)” value in assay [4] is “-”.

For `COC(=O)C1=C(C)NC(C)=C(C(=O)OCCCCCCNCC(O)COc2ccccc2C#N)C1c1cccc([N+](=O)[O-])c1.Cl` (centres unmarked) [Example 30, 6-[3-(o-cyanophenoxy)-2-hydroxypropylamino]hexyl methyl 2,6-dimethyl-4-(m-nitrophenyl)-1,4-di-hydropyridine-3,5-dicarboxylate hydrochloride], the ED50 in assay [2] was found to be 0.79 mg/kg. Besides, the change in vivo at 0.1 mg/kg in assay [3] (setting [5]) was 12%; in assay [3] (setting [6]), -21%. The “ISA (increase in HR)” value in assay [4] was “-”.

As to `CCOC(=O)C1=C(C)NC(C)=C(C(=O)OCCCCCCNCC(O)COc2ccccc2)C1c1cccc([N+](=O)[O-])c1` (centres unmarked) [Example 18, Ethyl 6-(2-hydroxy-3-phenoxy/propylamino)hexyl 2,6-dimethyl-4-(m-nitrophenyl)-1,4-dihydroxypyridine-3,5-dicarboxylate], in assay [1], the “ED100 pap (dose for 100% increase of Cor. BF; maximum response to papaverine 300 μg ia = 100%)” value was 67 μg ia and the “Duration” value is given as above 60 min. In addition, the ED50 in assay [2] was 1.25 mg/kg. For the same compound, the change in vivo at 0.3 mg/kg in assay [3] (setting [5]) is 31%. Also, in assay [3] (setting [6]), the change in vivo at 0.3 mg/kg is -22%. Also, in assay [4], the “ISA (increase in HR)” value is on record as “-”.

For `COC(=O)C1=C(C)NC(C)=C(C(=O)OCCCCNCC(O)COc2ccccc2)C1c1cccc([N+](=O)[O-])c1.Cl` (centres unmarked) [Example 11, 4-(2-hydroxy-3-phenoxy-propylamino)butyl methyl 2,6-dimethyl-4-(m-nitro-phenyl)-1,4-dihydropyridine-3,5-dicarboxylate hydrochloride], in assay [1], the “ED100 pap (dose for 100% increase of Cor. BF; maximum response to papaverine 300 μg ia = 100%)” value is 150 μg ia and the “Duration” value was 60 min. In addition, the ED50 in assay [2] was 0.64 mg/kg. In assay [3] (setting [5]), the change in vivo at 0.1 mg/kg is 35% and the change in vivo at 1 mg/kg came out at 193%. In assay [3] (setting [6]), the change in vivo at 0.1 mg/kg is -16% and the change in vivo at 1 mg/kg was -41%. In assay [4], the “ISA (increase in HR)” value is recorded as “++ (an increase in HR by 20 to 29 beats/min was observed)”.

For the compound `COC(=O)C1=C(C)NC(C)=C(C(=O)OCCCCCCNCC(O)COc2ccccc2)C1c1ccccc1[N+](=O)[O-]` (centres unmarked) [Example 41, 6-(2-hydroxy-3-phenoxypropylamino)hexyl methyl 2,6-dimethyl-4-(o-nitrophenyl)-1,4-dihydropyridine-3,5-dicarboxylate], in assay [1], the “ED100 pap (dose for 100% increase of Cor. BF; maximum response to papaverine 300 μg ia = 100%)” value is 43 μg ia and the “Duration” value is above 60 min. Also, the ED50 in assay [2] stood at 0.58 mg/kg. Also, in assay [3] (setting [5]), the change in vivo at 0.3 mg/kg stood at 45%. Besides, the change in vivo at 0.3 mg/kg in assay [3] (setting [6]) was -34%. Further, the “ISA (increase in HR)” value in assay [4] is listed as “+++ (an increase in HR by above 30 beats/min)”.

With `CC1=C(C(=O)OCCCCCCNCC(O)COc2ccccc2)C(c2cccc([N+](=O)[O-])c2)C(C(=O)OC(C)(C)C)=C(C)N1.Cl` (centres unmarked) [Example 21, tert-butyl 6-(2-hydroxy-3-phenoxypropylamino)hexyl 2,6-dimethyl-4-(m-nitrophenyl)-1,4-dihydropyridine-3,5-dicarboxylate hydrochloride], in assay [1], the “ED100 pap (dose for 100% increase of Cor. BF; maximum response to papaverine 300 μg ia = 100%)” value was 137 μg ia and the “Duration” value turned out to be 60 min. Moreover, in assay [2], the ED50 was 1.01 mg/kg. In assay [3] (setting [5]), the change in vivo at 1 mg/kg worked out at 34%. Besides, the change in vivo at 1 mg/kg in assay [3] (setting [6]) is -28%. In addition, the “ISA (increase in HR)” value in assay [4] is “+ (an increase in HR by 10 to 19 beats/min was observed)”.

Take `COC(=O)C1=C(C)NC(C)=C(C(=O)OCCCCCCNCC(O)COc2ccccc2Cl)C1c1cccc([N+](=O)[O-])c1` (centres unmarked) [Example 32, 6-[3-(o-chlorophenoxy)-2-hydroxypropylamino]hexyl methyl 2,6-dimethyl-4-(m-nitrophenyl)-1,4-dihyrdopyridine-3,5-dicarboxylate hydrochloride]: the ED50 in assay [2] stood at 1.18 mg/kg. Besides, the change in vivo at 0.1 mg/kg in assay [3] (setting [5]) was 35%; in assay [3] (setting [6]), -18%. For the same compound, the change in vivo at 0.3 mg/kg was 93% in assay [3] (setting [5]) and -36% in assay [3] (setting [6]). Besides, the “ISA (increase in HR)” value in assay [4] was “-”.

As for `COC(=O)C1=C(C)NC(C)=C(C(=O)OCCCCCCCCCCNCC(O)COc2ccccc2)C1c1cccc([N+](=O)[O-])c1.Cl` (centres unmarked) [Example 13, 10-(2-hydroxy-3-phenoxy-propylamino)decyl methyl 2,6-dimethyl-4-(m-nitro-phenyl)-1,4-dihydropyridine-3,5-dicarboxylate hydrochloride], in assay [1], the “ED100 pap (dose for 100% increase of Cor. BF; maximum response to papaverine 300 μg ia = 100%)” value is reported as 12 μg ia and the “Duration” value was found to be 60 min. The ED50 in assay [2] was 0.72 mg/kg. For the same compound, the change in vivo at 0.03 mg/kg in assay [3] (setting [5]) was 102%. Further, the change in vivo at 0.03 mg/kg in assay [3] (setting [6]) is -21%. For the same compound, the “ISA (increase in HR)” value in assay [4] is “+ (an increase in HR by 10 to 19 beats/min was observed)”.

With `COCCOC(=O)C1=C(C)NC(C)=C(C(=O)OCCCCCCNCC(O)COc2ccccc2)C1c1cccc([N+](=O)[O-])c1` (centres unmarked) [Example 22, 6-(2-hydroxy-3-phenoxy-propylamino)hexyl 2-methoxyethyl-2,6-dimethyl-4-(m-nitrophenyl-3,5-dicarboxylate hydrochloride], in assay [1], the “ED100 pap (dose for 100% increase of Cor. BF; maximum response to papaverine 300 μg ia = 100%)” value turned out to be 128 μg ia and the “Duration” value worked out at 60 min. The ED50 in assay [2] was determined as 0.82 mg/kg. Further, the change in vivo at 0.3 mg/kg in assay [3] (setting [5]) amounted to 118%. For the same compound, the change in vivo at 0.3 mg/kg in assay [3] (setting [6]) was -22%. Also, the “ISA (increase in HR)” value in assay [4] is listed as “-”.

Consider `COC(=O)C1=C(C)NC(C)=C(C(=O)OCCCCCCNCC(O)COc2ccccc2)C1c1cccc(OC)c1` (centres unmarked) [Example 46, 6-(2-hydroxy-3-phenoxypropylamino)hexyl methyl 2,6-dimethyl-4-(m-methoxyphenyl)-1,4-dihyrdopyridine-3,5-dicarboxylate hydrochloride], for which, in assay [1], the “ED100 pap (dose for 100% increase of Cor. BF; maximum response to papaverine 300 μg ia = 100%)” value turned out to be 98 μg ia and the “Duration” value is recorded as above 60 min. In addition, the ED50 in assay [2] was 0.66 mg/kg. Besides, in assay [3] (setting [5]), the change in vivo at 0.3 mg/kg was 36% and the change in vivo at 1 mg/kg turned out to be 78%. In addition, in assay [3] (setting [6]), the change in vivo at 0.3 mg/kg is -21% and the change in vivo at 1 mg/kg is -45%. The “ISA (increase in HR)” value in assay [4] is listed as “+ (an increase in HR by 10 to 19 beats/min was observed)”.

Source of the values: patent US5591757A, “Dihydropyridine composition” (Yamanouchi Pharmaceutical Co., Ltd., priority 1984, dated 1997).
